Results reported in US5362906A, “Farnesyl pyrophosphate analogs” (Merck & Co., Inc., priority 1993, dated 1994).

tested on: HMG-CoA reductase; assay: not given; conditions: cited from earlier work

| Compound | Inhibition of HMG-CoA reductase |
| --- | --- |
| CC[C@H](C)C(=O)O[C@H]1CCC=C2C=C[C@H](C)[C@H](CC[C@@H]3C[C@@H](O)CC(=O)O3)[C@H]21 [compactin] | inhibit HMG-CoA reductase |
| CC[C@H](C)C(=O)O[C@H]1C[C@@H](C)C=C2C=C[C@H](C)[C@H](CC[C@@H]3C[C@@H](O)CC(=O)O3)[C@H]21 [lovastatin] | inhibit HMG-CoA reductase |

tested on: Ras farnesylation; assay: not given; conditions: Hancock et al., Casey et al., Schafer et al.; cited from earlier work

| Compound | Inhibition of Ras farnesylation in vivo |
| --- | --- |
| CC[C@H](C)C(=O)O[C@H]1CCC=C2C=C[C@H](C)[C@H](CC[C@@H]3C[C@@H](O)CC(=O)O3)[C@H]21 [compactin] | Inhibition of Ras farnesylation in vivo has been demonstrated |
| CC[C@H](C)C(=O)O[C@H]1C[C@@H](C)C=C2C=C[C@H](C)[C@H](CC[C@@H]3C[C@@H](O)CC(=O)O3)[C@H]21 [lovastatin] | Inhibition of Ras farnesylation in vivo has been demonstrated |

molecular target: T1, Farnesyl-protein transferase (Bos taurus, UniProt P29702+P49355); assay: Inhibition of Ras farnesylation in vitro by farnesyl-protein transferase (FTase); format: biochemical; conditions: partially purified bovine brain FTase; Ras-CVLS 3.5 μM, [3H]FPP 0.25 μM; averages of 2-5 determinations
T1 construct: Farnesyl-protein transferase from bovine brain; from tissue; host or cells: bovine brain, partially purified (DEAE-Sephacel, N-octyl agarose, mono Q HPLC)
Method: The farnesyl pyrophosphate analog compounds of this invention were tested as follows for their ability to inhibit Ras farnesylation in vitro. Farnesyl-protein transferase from bovine brain was chromatographed on DEAE-Sephacel (Pharmacia, 0-0.8M NaCl gradient elution), N-octyl agarose (Sigma, 0-0.6M NaCl gradient elution), and a mono Q HPLC column (Pharmacia, 0-0.3M NaCl gradient). Ras-CVLS at 3.5 μM, 0.25 μM [^3 H]FPP, and the indicated compounds were incubated with this partially purified enzyme preparation.
The FTase data presented above are the averages of 2-5 determinations and reflect the ability of the test compounds to inhibit Ras farnesylation in vitro.

| IC50 [µM] | Compound |
| --- | --- |
| 21 | CC(=O)C(C/C=C(\C)CC/C=C(\C)CCC=C(C)C)P(=O)(O)O (stereo not drawn) [Scheme 4, [1-Acetyl-4,8,12-trimethyltrideca-3,7,11-trienyl]phosphonic acid] |
| 0.044 | CC(C)=CCC/C(C)=C/CC/C(C)=C/CNC(=O)CP(=O)(O)O [Scheme 5, [2-[(E,E)-3,7,11-Trimethyl-2,6,10-dodecatrienylamino]-2-oxo-ethyl]phosphonic acid] |
| 100 | CC(C)=CCC/C(C)=C/CC/C(C)=C/CCSCP(=O)(O)O [Scheme 6, [(E,E)-4,8,12-trimethyl-3,7,11-tridecatrienyl]thiomethyl-phosphonic acid] |

Further lines, the compound ahead of its results:

| Compound | IC50 [µM] |
| --- | --- |
| CC(C)=CCC/C(C)=C/CC/C(C)=C/CCC(O)CC(=O)O (stereo not drawn) [Scheme 1, 3-Hydroxy-7,11,15-trimethylhexadeca-6,10,14-trienoic acid] | 310 |
| CC(C)=CCC/C(C)=C/CC/C(C)=C/CCC(=O)CP(=O)(O)O [Scheme 2, [2-Oxo-6,10,14-trimethylpentadeca-5,9,13-trienyl]phosphonic acid] | 62 |
| CC(C)=CCC/C(C)=C/CC/C(C)=C/CCC(O)CP(=O)(O)O (stereo not drawn) [Scheme 3, [2-Hydroxy-6,10,14-trimethylpentadeca-5,9,13-trienyl]phosphonic acid] | 100 |
| [1-Hydroxy-(E,E)-4,8,12-trimethyl-3,7,11-tridecatrienyl]phosphonic acid [Scheme 12] | 42 |
| [2-[(E,E)-3,7,11-Trimethyl-2,6,10-dodecatrienylamino]-2-oxo-ethyl]phosphonic acid monomethyl ester, potassium salt [Scheme 8] | 100 |
